Entries after “also recorded” stand apart in the source; their conditions may differ. Where no end group is shown, it is not given here.
What was measured:
[1] = target: T1, QhTERT cells that express FGFR2c (Homo sapiens, UniProt P21802); assay: Competition for reagent binding with unlabeled peptide (confocal microscopy); settings: unlabeled peptide 50 μM and greater (up to 500 μM) vs 0 μM; 5 μM SRR*-Cy5.5; 4° C
T1 construct: expressed in transfected cells; host or cells: QhTERT (human non-dysplastic Barrett's esophagus cells immortalized with hTert)
T1 sequence (P21802 22-821): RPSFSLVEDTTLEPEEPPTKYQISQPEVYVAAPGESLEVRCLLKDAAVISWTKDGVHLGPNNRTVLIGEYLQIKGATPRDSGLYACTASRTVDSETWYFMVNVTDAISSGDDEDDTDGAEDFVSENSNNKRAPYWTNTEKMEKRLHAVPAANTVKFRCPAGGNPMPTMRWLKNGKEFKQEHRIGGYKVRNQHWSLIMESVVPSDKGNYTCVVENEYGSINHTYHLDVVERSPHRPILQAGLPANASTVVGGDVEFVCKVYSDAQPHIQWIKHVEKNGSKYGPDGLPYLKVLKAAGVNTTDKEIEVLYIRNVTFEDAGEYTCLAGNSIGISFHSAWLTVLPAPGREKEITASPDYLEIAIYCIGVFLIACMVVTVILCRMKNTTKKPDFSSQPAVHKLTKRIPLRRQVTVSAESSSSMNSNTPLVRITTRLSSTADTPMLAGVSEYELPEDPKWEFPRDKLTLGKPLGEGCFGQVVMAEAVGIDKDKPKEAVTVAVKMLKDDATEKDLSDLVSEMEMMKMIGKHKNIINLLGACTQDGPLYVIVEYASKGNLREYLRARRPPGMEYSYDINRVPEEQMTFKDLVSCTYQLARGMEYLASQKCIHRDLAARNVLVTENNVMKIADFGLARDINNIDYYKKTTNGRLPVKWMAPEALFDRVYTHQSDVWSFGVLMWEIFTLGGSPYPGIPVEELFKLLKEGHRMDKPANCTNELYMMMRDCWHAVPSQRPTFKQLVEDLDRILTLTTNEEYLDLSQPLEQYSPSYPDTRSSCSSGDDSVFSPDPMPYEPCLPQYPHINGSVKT
Method: We administered unlabeled SRR*, and used confocal microscopy to observe competition for binding of SRR*-Cy5.5 to QhTERT cells that express FGFR2c, FIG. 3A-L. Approximately 10^3 cells were grown to ˜70% confluence on cover glass in triplicate. Unlabeled peptides at concentrations of 0, 50, 100, 150, 250, and 500 μM were incubated with the cells for 30 min at 4° C. The cells were washed and incubated with 5 μM of the target peptide for another 30 min at 4° C. The cells were washed and fixed with 4% PFA for 5 min. The cells were washed with PBS and mounted with ProLong Gold reagent containing DAPI (Invitrogen).

[2] = target: T1, QhTERT cells that express FGFR2c; assay: Apparent association time constant by flow cytometry; assay type: binding; settings: for apparent association time constant k: 5 μM, RT, 0 to 30 min; for time scale for onset of binding: from k
Method: We measured the apparent association time constant of the peptide reagent to QhTERT/FGFR2c cells to assess binding onset.^46 Cells were grown to ˜80% confluence in 10 cm dishes, and detached with PBS-based cell dissociation buffer (Invitrogen). Cells (˜10^5) were incubated with 5 μM SRR-Cy5.5 at RT for various time intervals ranging from 0 to 30 min. The cells were centrifuged, and washed with cold PBS. Flow cytometry analysis was performed as described above, and the median fluorescence intensity (y) were measured on flow cytometry at different time points (t) using Flowjo software. The rate constant k was calculated by fitting the data to a first order kinetics model, y(t)=Imax[1−exp^(−kt)], where Imax=maximum value using Prism 5.0 software (GraphPad Inc).

[3] = test system: phosphorylation of FGFR2 (p-FGFR), AKT (p-AKT) and ERK (p-ERK) in QhTERT cells that express FGFR2c; assay: Effect on cell signaling, Western blot, FGFR2c cells; assay type: cell-based, human; settings: peptide 5 or 100 μM, FGF1 100 ng/mL, 20 min, vs untreated cells
Method: (§1) QhTERT cells that overexpress either FGFR2b or FGFR2c were seeded in 12-well flat-bottom plates with 500 μL of serum-free medium for 16 hours. FGF1 (#2232-FA-025, R&D systems) was reconstituted to a concentration of 100 μg/mL using PBS, diluted with 0.1% bovine serum albumin, and added to the cells at final concentrations of 100 ng/mL for 20 min in separate wells. Heparin (#H3149-10KU, Sigma) with final concentration of 100 unit/mL was also added to increase stability. In addition, peptides at concentrations of 5 and 100 μM were incubated for 20 min in separate wells. The cells were washed with PBS and lysed in RIPA buffer containing protease inhibitors (#11836170001, Roche, Basel, Switzerland). Lysates were separated by gel electrophoresis, transferred to polyvinylidene difluoride membranes (#ISEQ00010, Millipore), and detected by immunoblotting using an enhanced chemiluminescence system (#RPN2106, GE Healthcare). Anti-FGFR2 antibody (#SC 122, Santa Cruz Biotechnology), anti-phospho-FGFR (#3471, Cell Signaling Technology), anti-AKT (#4691P, Cell Signaling Technology), anti-ERK1/2 (#4695P, Cell Signaling Technology), anti-phospho-AKT (pS473; #4060P, Cell Signaling Technology), anti-phospho-ERK1/2 (#4370P, Cell Signaling Technology), and anti-tubulin (#32-2600, Invitrogen) were used as per manufacturer's instructions.

[4] = test system: phosphorylation of FGFR2 (p-FGFR), AKT (p-AKT) and ERK (p-ERK) in QhTERT cells that express FGFR2b; assay: Effect on cell signaling, Western blot, FGFR2b cells; assay type: cell-based, human; settings: peptide 5 or 100 μM, FGF1 100 ng/mL, 20 min, vs untreated cells
Method: as §1

[5] = target: T1, QhTERT cells that express FGFR2c; assay: Apparent dissociation constant by flow cytometry; assay type: binding; settings: 0 to 200 nM, 4° C, 1 hour
Method: We measured the apparent dissociation constant kd for peptide reagent binding to cells to assess binding affinity.^45 The Cy5.5-labeled peptide reagent was serially diluted in PBS at concentrations ranging from 0 to 200 nM in 25 nM increments. QhTERT/FGFR2c cells (˜10^5) were incubated with peptide at 4° C. for 1 hour, washed with cold PBS, and the mean fluorescence intensities were measured using flow cytometry. The equilibrium dissociation constant kd=1/ka was calculated by performing a least squares fit of the data to the non-linear equation I=(I0+Imaxka[X])/([…]). I0 and Imax are the initial and maximum fluorescence intensities, corresponding to no peptide and at saturation, respectively, and [X] represents the concentration of the bound peptide reagent. Prism 5.0 software (GraphPad Inc) was used to calculate kd.

[6] = test system: human esophageal specimens (SQ, BE, HGD, EAC); assay: Confocal microscopy staining of sections of human esophagus ex vivo; assay type: binding
Method: Formalin-fixed sections of human esophageal specimens were deparaffinized, and antigen retrieval was performed using standard methods. Briefly, the sections were incubated in xylene for 3 min 3×, washed with 100% ethanol for 2 min 2×, and washed with 95% ethanol for 2 min 2×. Rehydration was performed by washing in dH2O for 5 min 2×. Antigen unmasking was performed by boiling the slides in 10 mM sodium citrate buffer with 0.05% Tween at pH 6.0, and then maintaining at sub-boiling temperature for 15 min. The slides were cooled for 30 min, and the sections were washed in dH2O for 3 min 3× and in PBS for 5 min. Blocking was performed with DAKO protein blocking agent (X0909, DAKO) for 1 hour at RT. The peptides were incubated at a concentration of 1 μM for 10 min at RT. The sections were washed in PBS for 3 min 3×, and incubated with 1:1000 dilution of monoclonal anti-FGFR2 (Abcam, ab58201) overnight at 4° C.
The sections were then washed in PBS for 5 min 3×. A 1:500 dilution of AF488-labeled secondary antibody (goat anti-mouse) was added to each section and incubated for 30 min at RT. The secondary antibody solution was removed by washing with PBS for 5 min 3×. The sections were then mounted with ProLong Gold reagent containing DAPI (Invitrogen). The mean fluorescence intensities from 3 boxes (dimensions of […]) located completely within the surface epithelium of each specimen were measured. […] Serial sections were processed for routine histology (H&E), and were reviewed by an expert gastrointestinal pathologist (HDA).

QhTERT cells wild type = assay: Confocal fluorescence microscopy, binding to wild-type QhTERT cells; design: species or system human
From the text: (§2) All human esophagus specimens were obtained with written, informed patient consent per approval and guidelines of the University of Michigan Institutional Review Board (IRB). Human non-dysplastic Barrett's esophagus (BE) cells immortalized with hTert (QhTERT) were obtained from the American Type Culture Collection (ATCC) and cultured in keratinocyte-serum free medium containing bovine pituitary extract and human recombinant EGF (ThermoFisher #17005042). QhTERT cells with stable expression of FGFR2b or FGFR2c were provided by DGB. We cultured these cells with keratinocyte-serum free medium containing bovine pituitary extract and human recombinant EGF (ThermoFisher #17005042) and added 1 μg/mL of puromycin-dihydrochloride (Invitrogen #A11138-03). All cells were cultured at 37° C. in 5% CO2, and were passaged using 0.25% EDTA containing trypsin (Mediatech Inc). A hemocytometer was used to count the cell number. Peptide synthesis reagents were obtained from either Anaspec or AAPPTEC with the highest grade available (>99% purity) and used without further purification. Solvents and other chemical reagents were obtained from Sigma-Aldrich, unless otherwise stated.
(§3) On confocal microscopy, we validated specific peptide reagent binding to human BE cells that express FGFR2.

[7] = target: T1, QhTERT cells that express FGFR2c; assay: Confocal fluorescence microscopy, binding to QhTERT cells expressing FGFR2c
From the text: as §2, §3

[8] = test system: sections of human gastric cancer; assay: Confocal microscopy staining of human gastric cancer sections ex vivo; assay type: binding
From the text: We observed good co-localization of peptide and antibody binding on merged images, FIG. 11C. Representative histology (H&E) for gastric cancer is shown, FIG. S6D.

[9] = test system: sections of human esophageal squamous cell cancer (SCC); assay: Confocal microscopy staining of human esophageal squamous cell carcinoma sections ex vivo; assay type: binding
From the text: We observed good co-localization of peptide reagent and antibody binding on merged images, FIG. 10C. Representative histology (H&E) for SCC is shown, FIG. 10D.

[10] = target: T2, QhTERT cells that express FGFR2b (Homo sapiens, UniProt P21802); assay: Confocal fluorescence microscopy, binding to QhTERT cells expressing FGFR2b
T2 construct: expressed in transfected cells; host or cells: QhTERT (human non-dysplastic Barrett's esophagus cells immortalized with hTert)
T2 sequence (P21802 22-822 isoform P21802-3 limits assumed): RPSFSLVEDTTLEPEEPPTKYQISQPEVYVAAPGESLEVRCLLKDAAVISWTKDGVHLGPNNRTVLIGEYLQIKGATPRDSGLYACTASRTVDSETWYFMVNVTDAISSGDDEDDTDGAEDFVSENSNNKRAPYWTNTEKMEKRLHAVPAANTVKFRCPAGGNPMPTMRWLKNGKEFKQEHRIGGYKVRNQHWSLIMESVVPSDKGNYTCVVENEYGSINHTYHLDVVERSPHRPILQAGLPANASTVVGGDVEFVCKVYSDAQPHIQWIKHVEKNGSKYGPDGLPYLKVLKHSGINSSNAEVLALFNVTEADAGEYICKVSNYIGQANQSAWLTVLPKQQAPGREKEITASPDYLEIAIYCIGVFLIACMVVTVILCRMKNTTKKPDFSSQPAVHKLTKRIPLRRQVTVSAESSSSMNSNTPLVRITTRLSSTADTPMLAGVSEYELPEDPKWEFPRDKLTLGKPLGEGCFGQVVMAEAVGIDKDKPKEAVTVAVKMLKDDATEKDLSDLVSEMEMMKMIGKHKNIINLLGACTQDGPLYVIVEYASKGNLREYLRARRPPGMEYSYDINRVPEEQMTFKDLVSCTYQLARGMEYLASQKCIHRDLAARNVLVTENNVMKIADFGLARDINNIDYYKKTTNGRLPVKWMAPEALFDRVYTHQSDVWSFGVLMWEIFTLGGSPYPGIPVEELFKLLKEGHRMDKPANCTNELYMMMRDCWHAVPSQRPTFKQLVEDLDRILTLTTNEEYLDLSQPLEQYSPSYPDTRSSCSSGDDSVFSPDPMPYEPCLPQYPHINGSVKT
From the text: as §2, §3

| apparent association time constant k [2] | time scale for onset of binding [2] | Compound | change in binding (mean fluorescence intensity) of SRR*-Cy5.5 on addition of unlabeled peptide [1] | phosphorylation of FGFR2 (p-FGFR), AKT (p-AKT) and ERK (p-ERK) [3] | phosphorylation of FGFR2 (p-FGFR), AKT (p-AKT) and ERK (p-ERK) [4] | binding signal on cell surface (confocal microscopy) (QhTERT cells wild type) | binding signal on cell surface (confocal microscopy) [7] | binding signal on cell surface (confocal microscopy) [10] | also measured |
| --- | --- | --- | --- | --- | --- | --- | --- | --- | --- |
| 0.16 min⁻¹ | 6.2 min | C[C@H](NC(=O)[C@@H](NC(=O)[C@H](CCCNC(=N)N)NC(=O)[C@H](Cc1ccccc1)NC(=O)[C@H](CO)NC(=O)[C@H](C)NC(=O)[C@@H]1CCCN1C(=O)[C@H](CCCNC(=N)N)NC(=O)[C@H](CCCNC(=N)N)NC(=O)[C@@H](N)CO)[C@@H](C)O)C(=O)N[C@@H](CCCNC(=N)N)C(=O)N[C@@H](CCC(=O)O)C(N)=O (relative stereo) [SRR*, SRRPASFRTARE] | significant reduction; also recorded: significant decrease | no obvious change | no obvious change | – | – | – | – |
| – | – | FGF1: FGF1 (#2232-FA-025, R&D systems), positive control that binds FGFR2b and FGFR2c [reference compound] | – | strong phosphorylation activity; also recorded: shows phosphorylation activity | to some extent; also recorded: shows phosphorylation activity | – | – | – | – |
| 0.16 min⁻¹ | ~6.2 min | SRR*-Cy5.5: 12 amino acid sequence SRRPASFRTARE with fluorophore Cy5.5 attached via a GGGSK linker on the C-terminus (not fully specified (C-terminus)) | – | – | – | minimal signal | strong signal; also recorded: strong binding | strong signal; also recorded: strong binding | Kd [5]: 68 nM; mean target-to-background (T/B) ratio for HGD and EAC versus BE and SQ ([6]; 3 boxes of 30×30 μm^2): significantly higher; staining (fluorescence intensity) of section ([6]; Barrett's esophagus (BE)): minimal fluorescence intensity; also recorded: minimal staining; staining (fluorescence intensity) of section ([6]; esophageal adenocarcinoma (EAC)): strong signal; also recorded: strong binding; staining (fluorescence intensity) of section ([6]; high-grade dysplasia (HGD)): strong signal; also recorded: strong binding; mean fluorescence intensity from HGD and EAC compared with BE ([6]; n=28, 33, 22, 17 specimens of SQ, BE, HGD, EAC): significantly greater; staining (fluorescence intensity) of section ([6]; squamous (SQ)): minimal fluorescence intensity; also recorded: minimal staining; mean fluorescence intensity versus control SPS*-Cy5.5 ([7]; compared with wild-type): significantly greater; staining (fluorescence intensity) of section ([8]; human gastric cancer): strong fluorescence intensity; also recorded: strong binding; staining (fluorescence intensity) of section ([8]; normal human stomach): minimal fluorescence intensity; also recorded: minimal staining; mean fluorescence intensity from gastric cancer versus normal ([8]; paired, two-sided t-test): significantly greater; staining (fluorescence intensity) of section ([9]; human esophageal SCC): strong fluorescence intensity; also recorded: strong binding; staining (fluorescence intensity) of section ([9]; normal human esophagus): minimal fluorescence intensity; also recorded: minimal staining; mean fluorescence intensity from SCC versus normal ([9]; paired, two-sided t-test): significantly greater; mean fluorescence intensity versus control SPS*-Cy5.5 ([10]; compared with wild-type): significantly greater |
| – | – | SPS*-Cy5.5: scrambled sequence SPSRERTFRARA for control, labeled with Cy5.5 via a GGGSK linker (SPSRERTFRARAGGGS-{K(Cy5.5)-NH2}) [reference compound] | – | – | – | Minimal binding; also recorded: Minimal signal | Minimal binding; also recorded: Minimal signal | Minimal binding; also recorded: Minimal signal | – |
| – | – | SPSRERTFRARA [SPS*, unlabeled scrambled peptide used for control, reference compound] | No significant difference; also recorded: Non-significant differences | – | – | – | – | – | – |

From patent US11406720B2, “Fibroblast growth factor receptor 2-specific peptide reagents and methods” (THE REGENTS OF THE UNIVERSITY OF MICHIGAN, priority 2017, dated 2022)
